Read-outs that look alike come from different tables or passages of the source.
Assays:
[1] = DPPH radical scavenging activity; format: biochemical
Protocol: The scavenging activity of DPPH radical was investigated as described with slight modification. DPPH solution was prepared diluted by EtOH to reach the final concentration of 200 µM. Different concentrations (200, 100, 50, 25, and 12.5 µg/mL) of extracts or compounds (100 µL) were mixed with DPPH solution (100 µL) and incubated for 30 min at room temperature and in darkness, and the absorbance of the mixture was measured at 520 nm. DPPH radical scavenging activity was calculated with the following formula: DPPH scavenging activity (%) = (Ac − At)/Ac × 100, where At is the absorbance of the test sample, and Ac is the absorbance of the control (untreated group). BHT was used as the positive control. All half-maximal inhibitory concentration (IC50) values of tested activities were determined by the linear regression of the percentage of remaining DPPH radical against the sample’s concentration.

α-glucosidase = target: T1, α-glucosidase (Saccharomyces cerevisiae, UniProt P53341); assay: biochemical
T1 construct: purchased Sigma-Aldrich
Protocol: The inhibition assay of α-glucosidase was conducted using the conditions previously reported with slight modifications. The α-Glucosidase solution was diluted by 0.1 M sodium phosphate buffer (pH 6.8) to 1 U/mL. […] Subsequently, p-NPG (0.53 mM; 380 μL), the substrate, was added and incubated in dry baths at 37 °C for 40 min after the mixture vortexed. The reaction was terminated after adding 0.1 M Na2CO3 solution (500 μL). The absorbance of released p-nitrophenol (p-PNP) was measured by calculating the decrease in absorbance measured at 400 nm by the following equation:α-Glucosidase inhibition (%) = (Ac − At)/Ac × 100, where Ac is the absorbance of the control (untreated group), and At is the absorbance of the test sample. The IC50 values of all tested activities were determined by the linear regression of the percentage of remaining α-glucosidase against the sample concentration.

[2] = ABTS radical scavenging activity; format: biochemical
Protocol: ABTS radical scavenging activity of each extract was measured based on the method with slight changes. In brief, the stock of working solution was prepared by the mix of 28 mM ABTS solution and 9.6 mM potassium persulfate with ddH2O (final concentration, 1/1, v/v) and leaving the mixture in the dark for about 16 h at room temperature before use. The working solution was diluted by EtOH to reach the absorbance of 0.70 ± 0.02 at 740 nm for further experiments. Different concentrations (200, 100, 50, 20, and 12.5 µg/mL) of extracts or compounds (10 µL) were mixed with the working solution (190 μL). The mixture was incubated at room temperature for 6 min, the antioxidant activity of the mixture was determined by calculating the decrease in absorbance measured at 740 nm by the following equation:ABTS radical inhibiting activity (%) = (Ac − At)/Ac × 100,
Where Ac and At are the absorbance of the control (untreated group) and test sample, respectively. The IC50 values of all tested activities were determined by the liner regression of the percentage of remaining ABTS radical against the sample’s concentration.

[3] = Superoxide radical scavenging activity (PMS/NADH-NBT system); format: biochemical; details: isolated components (Table 5)
Protocol: The scavenging activity of superoxide anion radical (O2^•−) was evaluated using a modified method. NBT (300 μM), NADH (468 μM), and PMS (120 μM) were prepared with dilution by Tris-HCl buffer (16 mM, pH 8.0), respectively. An amount of 50 μL of NBT, PMS, and different concentrations (400, 200, 10, 50, and 25 µg/mL) of extracts or compounds were mixed. An amount of 50 μL NADH solution was added, and the reaction was initiated to produce superoxide radicals. The absorbance was measured at 560 nm after incubating at room temperature for 5 min. The scavenging activity was measured by the following equation:Superoxide radical scavenging activity = (Ac − At)/Ac × 100, where At is the absorbance of the test sample, and Ac is the absorbance of the control (untreated group). The IC50 values of all tested activities were determined by the linear regression of the percentage of remaining superoxide radical against the sample concentration.

[4] = Hydroxyl radical scavenging activity (Fenton reaction, deoxyribose); format: biochemical
Protocol: The scavenging activity of hydroxyl radical was measured based on the method described by Mathew and Abraham with slight revision. In short, different concentrations (400, 200, 10, 50, and 25 µg/mL) of extracts or compounds (200 μL) were mixed with working solution (200 μL) contained 1 mM FeCl3, 1 mM EDTA, and 2.8 mM deoxyribose. Then, 20 μL ascorbic acid (1 mM) and 100 μL H2O2 (20 mM) in sodium phosphate buffer (20 mM pH 7.4) was added. The mixture was incubated in a water bath at 37 °C for 1 h to trigger the Fenton reaction and form a hydroxyl radical. After incubation, 2.8% TCA (200 μL) and 1% TBA (200 μL) were added and boiled in the dry bath at 100 °C for 1 h. The mixture was measured at 532 nm by the following equation:Hydroxyl radical scavenging activity (%) = (Ac − At)/Ac × 100, where At and Ac are the absorbance of the test sample and the control (untreated group), respectively. The IC50 values of all tested activities were determined by the linear regression of the percentage of remaining hydroxyl radical against the sample’s concentration.

[5] = Ferric reducing antioxidant power (FRAP); format: biochemical
Protocol: Ferric reducing antioxidant power was measured based on previous study with slight modification. The working solution was mixed with acetate buffer (pH 3.6), ferric chloride solution (20 mM), and TPTZ solution (10 mM TPTZ in 40 mM HCl) in a proportion of 10:1:1, respectively, and freshly prepared before used. An amount of 900 μL of the working solution was warmed to 37 °C and then mixed with 100 μL of the diluted sample, blank or standard in a microcentrifuge tube. The tubes were vortexed and in the dry bath at 37 °C for 40 min. Absorbance was measured at 593 nm. […] Results are expressed in mM TE/g dry weight. Additional dilution was needed if the FRAP value measured was over the linear range of the standard curve.

[6] = isolated components, BHT positive control (Table 5)
[7] = isolated components, mM Trolox equivalents per gram (Table 5)
[8] = solvent extracts, BHT positive control (Table 2)

T1 sequence (P53341 whole entry): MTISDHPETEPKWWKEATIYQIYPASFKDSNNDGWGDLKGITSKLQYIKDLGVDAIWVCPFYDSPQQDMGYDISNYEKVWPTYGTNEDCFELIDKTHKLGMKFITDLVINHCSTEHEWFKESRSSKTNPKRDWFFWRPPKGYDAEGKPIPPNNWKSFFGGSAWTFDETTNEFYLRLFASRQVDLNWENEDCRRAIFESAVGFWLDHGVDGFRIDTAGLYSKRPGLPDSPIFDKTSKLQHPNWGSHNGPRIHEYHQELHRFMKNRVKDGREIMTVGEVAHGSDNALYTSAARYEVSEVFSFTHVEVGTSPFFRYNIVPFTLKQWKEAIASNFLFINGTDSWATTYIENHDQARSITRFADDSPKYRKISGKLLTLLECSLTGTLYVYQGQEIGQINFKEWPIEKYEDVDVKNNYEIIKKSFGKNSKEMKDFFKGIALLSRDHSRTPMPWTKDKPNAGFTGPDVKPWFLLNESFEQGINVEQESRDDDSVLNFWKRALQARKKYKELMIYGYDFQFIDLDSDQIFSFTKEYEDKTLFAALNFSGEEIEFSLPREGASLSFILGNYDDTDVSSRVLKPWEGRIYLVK

| IC50 (α-glucosidase; read-out: α-Glucosidase IC50 (converted)) [µM] | Hydroxyl IC50 [4, 6] [µg/mL] | DPPH IC50 ([1]; solvent extracts of C. pinnatifida fruits, BHT positive control (Table 2)) [µg/mL] | Hydroxyl IC50 [4, 8] [µg/mL] | ABTS IC50 [2, 8] [µg/mL] | Structure (SMILES) | DPPH IC50 [1, 6] [µg/mL] | IC50 (α-glucosidase) [µM] | ABTS IC50 [2, 6] [µg/mL] | Superoxide IC50 [3] [µg/mL] | FRAP (TE) [5, 7] | FRAP (TE) ([5]; isolated components, mM Trolox equivalents per gram (Table 5), listed as epicatechin) [mM/g] | FRAP (TE) ([5]; isolated components, mM Trolox equivalents per gram (Table 5), listed as procyanidin B2) [mM/g] | FRAP (TE) ([5]; millimolar Trolox equivalents per gram of extract (Table 2)) [mM/g] |
| --- | --- | --- | --- | --- | --- | --- | --- | --- | --- | --- | --- | --- | --- |
|  |  |  |  |  | O=c1c(O[C@@H]2O[C@H](CO)[C@H](O)[C@H](O)[C@H]2O)c(-c2ccc(O)c(O)c2)oc2cc(O)cc(O)c12 [Hyperoside, hyperoside] | 5.29 ± 0.17 | 75.3 | 18.00 ± 0.16 | 10.59 ± 0.22 |  |  |  |  |
| 282 | 20 ± 3.49 |  |  |  | Oc1cc(O)c2c(c1)O[C@H](c1ccc(O)c(O)c1)[C@H](O)C2 [Epicatechin, epicatechin] | 2.53 ± 0.25 |  | 3.75 ± 0.03 | 41.56 ± 0.20 | 13,165.19 ± 42.42 mM/g | ≥ 7726.67 ± 39.97 |  |  |
|  | 60.62 ± 2.58 | 34.28 ± 1.40 | 61.51 ± 2.46 | 12.34 ± 0.29 | Cc1cc(C(C)(C)C)c(O)c(C(C)(C)C)c1 [BHT, Butylated hydroxytoluene, reference compound] | 24.04 ± 4.40 |  | 16.13 ± 3.29 |  | 4257.97 ± 44.90 mM/g |  |  | 4257.97 ± 44.90 |

| Structure (SMILES) | IC50 (α-glucosidase; read-out: α-Glucosidase IC50 (converted)) [µM] | Hydroxyl IC50 [4, 6] [µg/mL] | DPPH IC50 ([1]; solvent extracts of C. pinnatifida fruits, BHT positive control (Table 2)) [µg/mL] | Hydroxyl IC50 [4, 8] [µg/mL] | ABTS IC50 [2, 8] [µg/mL] | DPPH IC50 [1, 6] [µg/mL] | IC50 (α-glucosidase) [µM] | ABTS IC50 [2, 6] [µg/mL] | Superoxide IC50 [3] [µg/mL] | FRAP (TE) [5, 7] | FRAP (TE) ([5]; isolated components, mM Trolox equivalents per gram (Table 5), listed as epicatechin) [mM/g] | FRAP (TE) ([5]; isolated components, mM Trolox equivalents per gram (Table 5), listed as procyanidin B2) [mM/g] | FRAP (TE) ([5]; millimolar Trolox equivalents per gram of extract (Table 2)) [mM/g] |
| --- | --- | --- | --- | --- | --- | --- | --- | --- | --- | --- | --- | --- | --- |
| Oc1cc(O)c2c(c1)O[C@H](c1ccc(O)c(O)c1)[C@H](O)[C@H]2c1c(O)cc(O)c2c1O[C@H](c1ccc(O)c(O)c1)[C@H](O)C2 [Procyanidin B2, procyanidin B2] |  | 13.69 ± 1.88 |  |  |  | 2.81 ± 0.08 | 205 | 2.91 ± 0.57 | 37.22 ± 0.63 | 11,092.44 ± 32.92 mM/g |  | ≥ 7726.67 ± 39.97 |  |
